{"source": "patent EP0317544A1", "about": "“Method of modifying the micro environment of an enzyme by cross-linking the peptidic molecules, use thereof for making enzymatic reactors requiring the regeneration of the cofactor” (priority 1987, dated 1989)", "key": {"[1]": {"target": "alcool déshydrogénase (ADH), préparation ADH-LYS (polylysine, forme soluble) (Saccharomyces cerevisiae, UniProt P00330)", "sequence (P00330 2-348)": "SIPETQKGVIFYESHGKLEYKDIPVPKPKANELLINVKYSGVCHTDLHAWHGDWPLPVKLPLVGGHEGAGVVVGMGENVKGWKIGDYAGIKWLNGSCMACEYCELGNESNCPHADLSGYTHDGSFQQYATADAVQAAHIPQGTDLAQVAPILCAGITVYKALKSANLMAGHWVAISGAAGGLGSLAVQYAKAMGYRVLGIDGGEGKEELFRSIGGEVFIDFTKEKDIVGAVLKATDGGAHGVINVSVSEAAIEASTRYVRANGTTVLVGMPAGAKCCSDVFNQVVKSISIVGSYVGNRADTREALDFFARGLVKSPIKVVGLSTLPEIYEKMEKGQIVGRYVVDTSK", "experiment": "Two-substrate ordered kinetics of alcohol dehydrogenase, soluble polylysine-grafted preparation", "type": "biochemical", "conditions": "compared with the other soluble preparations", "description": "(§1) L'alcool déshydrogénase étant un enzyme suivant une réaction ordonnée à deux substrats, sa cinétique répond à l'équation : [formula] Ka et Kb sont les constantes de type Michaelis-Menten correspondant à la dissociation du complexe ternaire du NAD⁺ et de l'éthanol alors que Kia représente la constante de dissociation du complexe binaire ADH-NAD⁺ (Wratten et Cleland, 1963, Biochemistry 2, 935-941).\n(§2) Les valeurs des constantes pour les diverses préparations sont donnés au tableau 3. Nous ne pouvons pas ici interpréter chacune de ces valeurs et nous nous limiterons aux variations les plus importantes. En ce qui concerne le Kia, rappelons que plus le Kia est petit, plus l'affinité de l'enzyme pour la fixation de son premier substrat, le NAD⁺ est grande. Nous remarquons peu de variation pour les préparations solubles excepté pour la polylysine. […] Il faut aussi tenir compte de la charge positive de la lysine qui pourrait inhiber la diffusion du NAD⁺. Dans le cas de Ka et Kb, la fixation des peptides sur l'enzyme augmente les constantes, c'est-à-dire diminue l'affinité de fixation de ces substrats sur les complexes quaternaires de l'enzyme. Dans le cas des enzymes incorporés dans le gel, on constate aussi certains changements mais il faut en plus de l'effet du micro-environnement tenir compte des effets de diffusion. […]"}, "[2]": {"target": "alcool déshydrogénase (ADH), préparation ADH-LYS-PAA (poly-lysine-résine, forme immobilisée) (Saccharomyces cerevisiae, UniProt P00330)", "sequence (P00330 2-348)": "as above", "experiment": "Two-substrate ordered kinetics of alcohol dehydrogenase, polylysine-grafted preparation copolymerised in polyacrylamide gel", "type": "biochemical", "conditions": "enzyme incorporated in polyacrylamide gel; apparent value, diffusion effects", "description": "as §1, §2"}}, "data": [{"smiles": "NC(=O)c1ccc[n+]([C@@H]2O[C@H](COP(=O)([O-])OP(=O)(O)OC[C@H]3O[C@@H](n4cnc5c(N)ncnc54)[C@H](O)[C@@H]3O)[C@@H](O)[C@H]2O)c1", "note": "[NAD⁺]", "values": [{"measurement": "Kia (constante de dissociation du complexe binaire ADH-NAD⁺)", "setting": "[1]", "result": "baisse d'affinité"}, {"measurement": "Kia (constante de dissociation du complexe binaire ADH-NAD⁺)", "setting": "[2]", "result": "très faible"}]}]}
